Reference: patent publication US7223745B2, “Proteasome inhibitors and methods of using the same” (Cephalon, Inc., priority 2003, dated 2007)

How the values were obtained:
[1] = molecular target: T1, 20S Human Erythrocyte Proteasome (HEP) (Homo sapiens, UniProt P28074); test: Chymotrypsin-like activity of 20S Human Erythrocyte Proteasome (HEP), IC50 determination; format: biochemical; conditions: Suc-LLVY-AMC substrate, 15 minutes preincubation at 37° C.
T1 construct: 20S Human Erythrocyte Proteasome (HEP), purchased from Immatics Biotechnologies Inc; purchased Immatics Biotechnologies Inc., Tubingen, Germany; host or cells: human erythrocytes (natural source)
Protocol: Proteasome chymotrypsin-like activity of compounds of the invention was assayed according to the following procedure.
In 96-well microtiter plates, 20S Human Erythrocyte Proteasome (HEP), purchased from Immatics Biotechnologies Inc., Tubingen, Germany was plated at 0.2 μg/mL (about 0.6 nM catalytic sites) in 0.04% SDS 20 mM Tris buffer. A fluorimetric substrate Suc-LLVY-AMC (succinyl-Leu-Leu-Val-Tyr-7-amido-4-methylcoumarin), purchased from Sigma Inc., St. Louis, Mo., USA was added to a final concentration of 100 μM from a stock solution of 10 mM in dimethylsulfoxide. Reaction volumes were 100 μl per well. After incubation for various periods of time at 37° C., the concentration of free AMC (aminomethylcoumarin) was determined on a Perkin Elmer HTS 7000 Plus microplate reader, excitation 370 nm and emission 465 nm. Proteasome activity was determined under conditions in which substrate hydrolysis increased linearly with time and the change in fluorescence signal was proportional to the concentration of free AMC.
IC50 values are typically defined as the concentration of a compound necessary to produce 50% inhibition of the enzyme's activity. IC50 values are useful indicators of the activity of a compound for its designated use. […] In some embodiments, the inhibitors show some specificity for HEP and the ratio of the IC50 for inhibition of bovine α-chymotrypsin versus the IC50 for inhibition of HEP, i.e, IC50 (α-Chymotripsin)/IC50 (HEP), is greater then about 100.
(§1) Inhibition of the chymotrypsin-like activity of HEP and of bovine α-chymotrypsin was determined by incubating the enzyme with various concentrations of putative inhibitors for 15 minutes at 37° C. (or room temperature for α-chymotrypsin) prior to the addition of substrate. Each experimental condition was evaluated in triplicate, and replicate experiments were performed for the inhibitors described herein.

[2] = test system: proteasome in Molt-4 cells; test: Cellular assay for chymotrypsin-like activity of proteasome in Molt-4 cell line, EC50 determination; format: cell-based, human; conditions: MeOSuc-FLF-AFC substrate, 15 minutes preincubation at 37° C., read-out: MOLT4 (EC50)
Protocol: The chymotrypsin-like activity of proteasome in Molt-4 cells (human leukemia) was assayed according to the following procedure. A brief description of the method was published previously (Harding et al., J. Immunol., 1995, 155, 1767).
Molt-4 cells were washed and resuspended in HEPES-buffered Saline (5.4 mM KCl, 120 mM NaCl, 25 mM Glucose, 1.5 mM MgSO4, 1 mM Na pyruvate, 20 mM Hepes) and plated in 96-well microtiter white plates to a final concentration of 6×10^6 cells/mL. Then various 5× proteasome inhibitor concentrations (or diluted DMSO for controls), prepared from 250×DMSO solutions by diluting 50-fold using HEPES-buffered saline, were added to the plate to a final 1× concentration. After 15 minutes incubation at 37° C., a fluorimetric cell permeable substrate (MeOSuc-FLF-AFC) (methoxysuccinyl-Phe-Leu-Phe-7-amido-4-trifluoromethylcoumarin) purchased from Enzyme Systems Products, catalogue number AFC-88, was added to each well at a final concentration of 25 μM from a stock solution of 20 mM in DMSO. Reaction volumes were 100 μl per well.
The concentration of free AFC was monitored every 1.5 min for 30 min ([…]) on a Polastar Optima, BMG Labtechnologies microplate reader, using an excitation wavelength of 390 nm and emission wavelength of 520 nm. Proteasome activity was determined under conditions in which substrate hydrolysis increased linearly with time and the change in fluorescent signal was proportional to the concentration of free AFC.
EC50 values are typically defined as the concentration of a compound required to produce an inhibition of the enzyme's activity halfway between the minimum and the maximum response (0% and 85–90% respectively for this assay). EC50 values are useful indicators of the activity of a compound for its designated use.
as §1, with “of” for “of the”, “proteasome in Molt-4 cells” for “HEP and of bovine α-chymotrypsin”, “cells” for “the enzyme”, “C.” for “C. (or room temperature for α-chymotrypsin)”

Row | IC50 [1] | EC50 [2] | SMILES
1 | < 100 nM | – | CC(=O)NCCCCCC(=O)N[C@@H](CCCNC(=N)N[N+](=O)[O-])C(=O)N[C@@H](CC(C)C)B1O[C@@H]2C[C@@H]3C[C@@H](C3(C)C)[C@]2(C)O1 [Example 15, 6-(Acetylamino)hexanamide, N-[(1S)-1-[[[(1R)-1-[(3aS,4S,6S,7aR)-hexahydro-3a,5,5-trimethyl-4,6-methano-1,3,2-benzodioxaborol-2-yl]-3-methylbutyl]amino]carbonyl]-4-[[imino(nitroamino)methyl]amino]butyl]]
2 | < 10 nM | < 200 nM | CC(C)C[C@H](NC(=O)[C@H](CCCNC(=N)N[N+](=O)[O-])NC(=O)CCCCCCCCCCCNC(=O)OC(C)(C)C)B1O[C@@H]2C[C@@H]3C[C@@H](C3(C)C)[C@]2(C)O1 [Example 11, 12-[(1,1-dimethylethoxy)carbonylamino]dodecanamide, N-[(1S)-1-[[[(1R)-1-[(3aS,4S,6S,7aR)-hexahydro-3a,5,5-trimethyl-4,6-methano-1,3,2-benzodioxaborol-2-yl]-3-methylbutyl]amino]earbonyl]-4-[[imino(nitroamino)methyl]amino]butyl]-]
3 | < 10 nM | < 200 nM | CC(C)C[C@H](NC(=O)[C@H](CCCNC(=N)N[N+](=O)[O-])NC(=O)CCCCCCCCC#N)B1O[C@@H]2C[C@@H]3C[C@@H](C3(C)C)[C@]2(C)O1 [Example 14, 9–Cyanononamide, N-[(1S)-1-[[[(1R)-1-[(3aS,4S,6S,7aR)-hexahydro-3a,5,5-trimethyl-4,6-methano-1,3,2-benzodioxaborol-2-yl]-3-methylbutyl]amino]carbonyl]-4-[[imino(nitroamino)methyl]amino]butyl]]
4 | < 10 nM | > 10000 nM | CC(C)C[C@H](NC(=O)[C@H](CCCNC(=N)N[N+](=O)[O-])NC(=O)CCCCCCCCC#N)B(O)O [Example 21, Boronic acid, [(1R)-1-[[(2S)-5-[[imino(nitroamino)methyl]amino]-2-[(9-Cyanononanoyl)amino]-1-oxopentyl]amino]-3-methylbutyl]]
5 | < 10 nM | < 200 nM | CCS(=O)(=O)NCCCCCCCC(=O)N[C@@H](CCCNC(=N)N[N+](=O)[O-])C(=O)N[C@@H](CC(C)C)B1O[C@@H]2C[C@@H]3C[C@@H](C3(C)C)[C@]2(C)O1 [Example 19]
6 | < 10 nM | > 10000 nM | COC(=O)CCCCCCC(=O)N[C@@H](CCCNC(=N)N[N+](=O)[O-])C(=O)N[C@@H](CC(C)C)B(O)O [Example 22, Boronic acid, [(1R)-1-[[(2S)-5-[[imino(nitroamino)methyl]amino]-2-[[7-(methoxycarbonyl)heptanoyl]amino]-1-oxopentyl]amino]-3-methylbutyl]]
7 | < 100 nM | > 10000 nM | CCS(=O)(=O)NCCCCCC(=O)N[C@@H](CCCNC(=N)N[N+](=O)[O-])C(=O)N[C@@H](CC(C)C)B1O[C@@H]2C[C@@H]3C[C@@H](C3(C)C)[C@]2(C)O1 [Example 17, 6-(Ethanesulfonylamino)hexanamide, N-[(1S)-1-[[[(1R)-1-[(3aS,4S,6S,7aR)-hexahydro-3a,5,5-trimethyl-4,6-methano-1,3,2-benzodioxaborol-2-yl]-3-methylbutyl]amino]carbonyl]-4-[[imino(nitroamino)methyl]amino]butyl]]
8 | < 10 nM | < 200 nM | CC(C)C[C@H](NC(=O)[C@H](CCCNC(=N)N[N+](=O)[O-])NC(=O)CCCCCCCCCCCN1C(=O)c2ccccc2C1=O)B1O[C@@H]2C[C@@H]3C[C@@H](C3(C)C)[C@]2(C)O1 [Example 16]
9 | < 10 nM | < 10000 nM | CC(C)C[C@H](NC(=O)[C@H](CCCNC(=N)N[N+](=O)[O-])NC(=O)CCCCCCCCCCC#N)B(O)O [Example 20, Boronic acid, [(1R)-1-[[(2S)-5-[[imino(nitroamino)methyl]amino]-2-[(11-Cianoundecanoyl)amino]-1-oxopentyl]amino]-3-methylbutyl]]
10 | < 10 nM | < 2000 nM | COC(=O)CCCCCCC(=O)N[C@@H](CCCNC(=N)N[N+](=O)[O-])C(=O)N[C@@H](CC(C)C)B1O[C@@H]2C[C@@H]3C[C@@H](C3(C)C)[C@]2(C)O1 [Example 12]
11 | < 10 nM | > 10000 nM | CC(=O)NCCCCCC(=O)N[C@@H](CCCNC(=N)N[N+](=O)[O-])C(=O)N[C@@H](CC(C)C)B(O)O [Example 24, Boronic acid, [(1R)-1-[[(2S)-5-[[imino(nitroamino)methyl]amino]-2-[[6-(acetylamino)hexanoyl]amino]-1-oxopentyl]amino]-3-methylbutyl]]
12 | < 10 nM | < 2000 nM | CC(C)C[C@H](NC(=O)[C@H](CCCNC(=N)N[N+](=O)[O-])NC(=O)CCCCCNS(=O)(=O)c1ccccc1)B1O[C@@H]2C[C@@H]3C[C@@H](C3(C)C)[C@]2(C)O1 [Example 18, 6-Benzenesulfonylaminohexanamide, N-[(1S)-1-[[[(1R)-1-[(3aS,4S,6S,7aR)-hexahydro-3a,5,5-trimethyl-4,6-methano-1,3,2-benzodioxaborol-2-yl]-3-methylbutyl]amino]carbonyl]-4-[[imino(nitroamino)methyl]amino]butyl]]
13 | < 10 nM | < 200 nM | CC(C)C[C@H](NC(=O)[C@H](CCCNC(=N)N[N+](=O)[O-])NC(=O)CCCCCCCCCN1C(=O)c2ccccc2C1=O)B1O[C@@H]2C[C@@H]3C[C@@H](C3(C)C)[C@]2(C)O1 [Example 10, 10-(1,3-Dioxo-1,3-dihydro-isoindol-2-yl)-decanamide, N-[(1S)-1-[[[(1R)-1-[(3aS,4S,6S,7aR)-hexahydro-3a,5,5-trimethyl-4,6-methano-1,3,2-benzodioxaborol-2-yl]-3-methylbutyl]amino]carbonyl]-4-[[imino(nitroamino)methyl]amino]butyl]-;]
14 | < 10 nM | < 200 nM | CC(C)C[C@H](NC(=O)[C@H](CCCNC(=N)N[N+](=O)[O-])NC(=O)CCCCCCCCCN1C(=O)c2ccccc2C1=O)B(O)O [Example 23]

Row | SMILES | IC50 [1] | EC50 [2]
15 | CC(C)C[C@H](NC(=O)[C@H](CCCNC(=N)N[N+](=O)[O-])NC(=O)CCCCCCCCCCC#N)B1O[C@@H]2C[C@@H]3C[C@@H](C3(C)C)[C@]2(C)O1 [Example 13, 11-Cyanoundecanamide, N-[(1S)-1-[[[(1R)-1-[(3aS,4S,6S,7aR)-hexahydro-3a,5,5-trimethyl-4,6-methano-1,3,2-benzodioxaborol-2-yl]-3-methylbutyl]amino]carbonyl]-4-[[imino(nitroamino)methyl]amino]butyl]-.] | < 10 nM | < 200 nM
